Values quoted from earlier work as cited in US20260102363A1, “TREATMENT METHOD AND ANTIFUNGAL COMPOSITION” (MOBERG PHARMA AB, priority 2020, published 2026).
Structures can show the parent of a compound that is named as a salt. Where two headings read alike, the source gives them in different places.

Key:
[1] = test system: DSO
[2] = test system: onychomycosis
[3] = Study 1 of the prescribing information
[4] = Study 2 of the prescribing information
[5] = single reported study, hydrochloride

For `Cc1cc(C2CCCCC2)n(O)c(=O)c1` [Ciclopirox (Penlac ®), ciclopirox], the “Complete Cure (%)” value [1, 3] is listed as 5.5%, the “Mycological Cure (%)” value [1, 3] is listed as 29% and the “Complete Cure (%)” value [1, 4] is listed as 8.5%. For the same molecule, the “Mycological Cure (%)” value [1, 4] was 36%.
In the case of `CN(C/C=C/C#CC(C)(C)C)Cc1cccc2ccccc12` [Terbinafine (oral) (LAMISIL ®), terbinafine hydrochloride], the mycological cure rate ([2]; after 12 weeks) is given as ~15%, the mycological cure rate ([2]; at 24 weeks) is given as ~40% and the mycological cure rate ([2]; at week 48/52) is given as ~70%. The “Complete Cure (%)” value [1, 5] was 38% and the “Mycological Cure (%)” value [1, 5] was 70%.
In the case of `C=C1CCN([C@H](C)[C@](O)(Cn2cncn2)c2ccc(F)cc2F)CC1` [Efinaconazole (JUBLIA ®), efinaconazole], the “Complete Cure (%)” value [1, 3] is given as 15.2%, the “Mycological Cure (%)” value [1, 3] is given as 53.4% and the “Complete Cure (%)” value [1, 4] is given as 17.8%. For the same molecule, the “Mycological Cure (%)” value [1, 4] was 55.2%.
For `CN(C/C=C/C#CC(C)(C)C)Cc1cccc2ccccc12` [Terbinafine (P3058), Terbinafine], the “Complete Cure (%)” value ([1]; single reported study) is listed as 5.7% and the “Mycological Cure (%)” value ([1]; single reported study) is listed as 20.4%.
In the case of `N#C/C(=C1/SC[C@@H](c2ccc(Cl)cc2Cl)S1)n1ccnc1` [Luliconazole], the “Complete Cure (%)” value ([1]; single reported study) is given as 14.9% and the “Mycological Cure (%)” value ([1]; single reported study) is given as 45.4%.
In the case of `OB1OCc2cc(F)ccc21` [Tavaborole (KERYDIN ®), tavaborole], the “Complete Cure (%)” value [1, 3] is given as 6.5%, the “Mycological Cure (%)” value [1, 3] is given as 31% and the “Complete Cure (%)” value [1, 4] is given as 9.1%. For the same molecule, the “Mycological Cure (%)” value [1, 4] was 35.9%.
